We go through two compounds from patent US20090104154A1, “Composition and method for killing of tumours” (COMMONWEALTH SCIENTIFIC AND INDUSTRIAL RESEARCH ORGANISATION, priority 2002, published 2009).

For test [1] the following is noted: cited from earlier work.
A further test deals with RM-1 tumours. The experiment in a line: GDEPT on subcutaneous tumours from RM-1 cells pre-transduced in vitro. It counts as in vivo, mouse. As to conditions: day 15; Fludarabine alone 600 mg/m^2/day compared with nil treatment. The protocol: RM-1 cells (3×10^7) were transduced in culture with 1×10^3 or 1×10^2 VP/cell of OAdV220 or mock transduced with virus dilution buffer on day −1. On day 0, 12 mice/group were subcutaneously injected with 2.5×10^5 virus- or mock-transduced cells. Fludarabine was then administered from days 1-5 at 600 mg/m^2/day. Tumour volume and animal survival were monitored three times per week. A line of best fit was generated for each treatment curve and the ability to suppress tumour growth or increase animal survival was determined from the days taken to reach the midpoint of tumour growth or animal survival respectively.

Test [2] deals with intraprostatic RM-1 tumours. The experiment in a line: GDEPT ± lipid on intraprostatic RM-1 tumours. It counts as in vivo, mouse. As to conditions: day 18; relative to the equivalent non-fludarabine treated tumours; fludarabine 600 mg/m^2/day ip. The protocol: In order to mimic clinical prostate cancer in an immunocompetent animal model, on day 1 RM-1 tumours were established in the prostate of C57BL/6 mice by intraprostatic injection of 5×10^3 RM-1 cells (˜50 μl cell suspension) per mouse. On day 4, these mice received an intraprostatic injection of 1×10^10 VP/tumour of OAdV220, either alone or formulated with 10 μM CS87 (see groups below). Fludarabine was then administered ip at 600 mg/m^2/day to appropriate groups from days 5-10. On day 6, pseudometastases were induced in the lungs by intravenous injection of 2.5×10^5 RM-1 cells (˜50 μl cell suspension) per mouse. Due to the limitations of surgery only 30 intraprostate injections can be performed per day. The experiment was therefore set up on 4 different days, although care was taken not to upset the timing of the experiment. The mice were weighed twice weekly, and sacrificed on day 18. Tissues were harvested for analysis (prostate volume, prostate weights).
Treatment groups were as follows:
Group A OAdV220 alone±fludarabine
Group B Nil treatment (storage buffer)±fludarabine
Group C OAdV220 plus […] CS87±fludarabine
Group D 10 μM CS87 alone±fludarabine

For the next test, the system named is PC3 tumours. Briefly: GDEPT on subcutaneous human PC3 tumours in nude mice. The test is classed as in vivo, mouse. The protocol:
The ability of the PNP-based GDEPT system to suppress tumour growth in vivo was tested using subcutaneous human PC3 tumours grown in nude mice. Once the tumours were established (see example 1), on day 0 two groups of mice received one intratumoural injection of 1×10^10 VP of OAdV220. Two further groups received virus storage buffer only. Following this treatment all animals in one of the virus groups and all animals in one of the no-virus groups received a daily intraperitoneal (ip) injection of fludarabine (75 mg/m^2/day) for the next five days. Animal weights and tumour volumes were recorded twice weekly. The vector only group was compared to the nil virus, nil prodrug group. The group that received vector plus fludarabine was compared with the group that received fludarabine only. The OAdV220 vector alone caused a 30% reduction in tumour growth. However, the overall tumour growth suppression was increased to 71% when virus was used in conjunction with Fludarabine.
The cut off for response was arbitrarily taken as a tumour volume of 600 mm^3, half the maximum tumour volume (1200 mm^3) allowed before mice had to be culled because of tumour burden. By day 25, 13 of 14 tumours treated with OAdV220 plus fludarabine were in the responder category compared with 6 of 9 that received fludarabine only, and 9 of 12 which received virus only. […]

In the case of `Nc1nc(F)nc2nc[nH]c12` [2FA, 2-fluoroadenine], the “potency as a growth inhibitor relative to 6 MP” value in test [1] is reported as about 100 fold.
For the compound `Nc1nc(F)nc2c1ncn2[C@@H]1O[C@H](CO)[C@@H](O)[C@@H]1O` [Fludarabine, fludarabine], the “reduction in mean tumour volume” value with RM-1 tumours was found to be 17%. In addition, in test [2], the “decrease in tumour volume” value is 12% and the “decrease in tumour weight” value was found to be 17%. The “responding tumours (tumour volume below 600 mm^3)” value in the test with PC3 tumours (day 25) is recorded as 6 of 9. For the same compound, the “responding tumours (tumour volume below 600 mm^3)” value with PC3 tumours (day 53) is listed as 0/5.
